From publication PMC4841942 (Cell chemical biology, 2016)
Read-outs that look alike come from different tables or passages of the source.

Experiments:
p97 WT [1] = target: T1, p97 WT (Homo sapiens, UniProt P55072); assay: ATPase activity assay, recombinant p97 WT; format: biochemical
p97 WT [2] = target: T1, p97 WT; assay: TR-FRET binding assay
p97 A530T [3] = target: T2, p97 A530T (Homo sapiens, UniProt P55072, A530T); assay: ATPase activity assay, recombinant p97 A530T; format: biochemical
p97 A530T [4] = target: T2, p97 A530T; assay: TR-FRET binding assay; conditions: for increase in apparent Kd for A530T: A530T versus WT
[5] = test system: HCT116 cells engineered with p97 A530T; assay: Cell viability; format: cell-based; conditions: homozygous A530T
[6] = test system: HCT116 873-R and 873-S cells; assay: Cell viability; format: cell-based
[7] = target: T3, p97 complexes in HCT116 cells (Homo sapiens, UniProt P55072); assay: Immunoblot of p97 immunoprecipitated from inhibitor-treated cells; format: cell-based; conditions: for increase in UFD1/NPL4 binding to p97 relative to control: inhibitor concentrations causing similar CHOP and ATF4 induction
Target sequence in this assay (P55072 2-806 limits assumed, one chain of several): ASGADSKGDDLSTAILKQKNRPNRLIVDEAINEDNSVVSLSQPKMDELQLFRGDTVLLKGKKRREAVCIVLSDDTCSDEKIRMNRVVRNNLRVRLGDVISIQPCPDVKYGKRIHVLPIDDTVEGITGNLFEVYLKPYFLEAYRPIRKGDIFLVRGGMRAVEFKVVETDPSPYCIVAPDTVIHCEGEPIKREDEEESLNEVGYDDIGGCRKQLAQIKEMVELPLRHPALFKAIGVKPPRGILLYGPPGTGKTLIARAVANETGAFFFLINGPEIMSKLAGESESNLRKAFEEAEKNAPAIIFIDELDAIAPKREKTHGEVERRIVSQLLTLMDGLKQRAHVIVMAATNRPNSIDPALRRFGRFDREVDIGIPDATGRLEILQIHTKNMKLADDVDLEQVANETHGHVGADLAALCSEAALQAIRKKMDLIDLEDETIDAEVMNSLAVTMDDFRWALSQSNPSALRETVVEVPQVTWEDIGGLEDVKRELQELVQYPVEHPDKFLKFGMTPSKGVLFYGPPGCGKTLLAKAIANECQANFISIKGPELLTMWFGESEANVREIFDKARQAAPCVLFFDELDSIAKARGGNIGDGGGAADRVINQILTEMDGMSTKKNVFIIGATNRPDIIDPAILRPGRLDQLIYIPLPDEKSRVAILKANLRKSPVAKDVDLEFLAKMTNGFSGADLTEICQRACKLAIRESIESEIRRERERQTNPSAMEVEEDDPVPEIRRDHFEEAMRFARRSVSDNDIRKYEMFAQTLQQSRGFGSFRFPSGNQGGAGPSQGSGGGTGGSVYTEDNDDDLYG

[8] = target: T3, p97 complexes in HCT116 cells; assay: LC-MS/MS analysis of p97 complexes purified from inhibitor-treated cells; format: cell-based; conditions: HCT116, 5 µM NMS-873, 6 hours, LC-MS/MS spectrum count
Target sequence in this assay (P55072 whole entry, one chain of several): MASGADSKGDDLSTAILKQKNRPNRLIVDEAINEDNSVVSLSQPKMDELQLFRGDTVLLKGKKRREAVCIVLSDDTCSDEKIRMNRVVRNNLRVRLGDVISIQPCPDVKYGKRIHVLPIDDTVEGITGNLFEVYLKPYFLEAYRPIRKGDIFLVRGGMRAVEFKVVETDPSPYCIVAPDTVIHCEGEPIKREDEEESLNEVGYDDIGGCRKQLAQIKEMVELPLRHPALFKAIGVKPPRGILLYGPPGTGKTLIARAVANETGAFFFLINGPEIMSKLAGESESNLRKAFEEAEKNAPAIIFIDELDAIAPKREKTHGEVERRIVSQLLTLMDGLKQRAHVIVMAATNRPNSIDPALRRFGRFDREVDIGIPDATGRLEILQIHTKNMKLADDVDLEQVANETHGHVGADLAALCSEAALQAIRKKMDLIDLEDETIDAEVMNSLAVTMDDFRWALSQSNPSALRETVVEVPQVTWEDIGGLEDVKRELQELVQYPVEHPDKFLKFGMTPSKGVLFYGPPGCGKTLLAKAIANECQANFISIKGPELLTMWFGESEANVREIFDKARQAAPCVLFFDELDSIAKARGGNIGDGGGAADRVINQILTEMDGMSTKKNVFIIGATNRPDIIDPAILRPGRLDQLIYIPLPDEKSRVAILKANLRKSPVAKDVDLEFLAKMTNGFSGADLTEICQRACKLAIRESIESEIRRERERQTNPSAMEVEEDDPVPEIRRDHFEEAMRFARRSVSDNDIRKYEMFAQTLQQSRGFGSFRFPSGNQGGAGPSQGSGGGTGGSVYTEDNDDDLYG

[9] = test system: CHOP, ATF4 and polyubiquitin in HCT116 cells; assay: Immunoblot of biomarkers of p97 inhibition; format: cell-based; conditions: 6 hours
[10] = HCT116, 1 hour, concentration dependent, immunoblot
[11] = HCT116, after washout of 5 µM NMS-873 (120 minutes)

T2 sequence (P55072 whole entry A530T): as the sequence (P55072 whole entry, one chain of several) above, with A530T counted along it
T1 sequence (P55072 whole entry): as the sequence (P55072 whole entry, one chain of several) above

Nc1ncnc2c1ncn2[C@@H]1O[C@H](COP(=O)(O)OP(=O)(O)O)[C@@H](O)[C@H]1O [ADP]
fold less sensitive to ADP than ATP-γ-S (p97 WT [1]; WT ATPase activity): 18 fold | IC50 (p97 WT [1]; read-out: IC50 ATPase activity, WT p97): 4500 nM | Kd (p97 WT [2]; read-out: apparent Kd, WT p97, TR-FRET, non-linear regression): 600 nM | fold less sensitive to ADP than ATP-γ-S (p97 A530T [3]; A530T ATPase activity): 3.7 fold | IC50 (p97 A530T [3]; read-out: IC50 ATPase activity, A530T p97): 24600 nM | increase in apparent Kd for A530T (p97 A530T [4]): 5- to 6 fold | Kd (p97 A530T [4]; read-out: apparent Kd, A530T p97, TR-FRET): 3800 nM

Nc1ncnc2c1ncn2[C@@H]1O[C@H](CO[P@](=O)(O)O[P@](=O)(O)O[P@@](=O)(O)S)[C@@H](O)[C@H]1O [ATP-γ-S]
IC50 (p97 WT [1]): 247 nM | Kd (p97 WT [2]): 25 nM | IC50 (p97 A530T [3]): 6600 nM | Kd (p97 A530T [4]): 140 nM | increase in apparent Kd for A530T (p97 A530T [4]): 5- to 6 fold

Cc1cc2c(C(N)=O)cccc2n1-c1nc2c(c(NCc3ccccc3)n1)COCC2 [CB-5083]
sensitivity of engineered A530T cells [5]: remained sensitive | sensitivity of 873-R compared with 873-S cells [6]: similarly sensitive

c1ccc(CNc2nc(NCc3ccccc3)c3ccccc3n2)cc1 [DBeQ]
increase in UFD1/NPL4 binding to p97 relative to control ([7]; HCT116, 1 hour): up to 2.1 fold | sensitivity of 873-R compared with 873-S cells [6]: similarly sensitive

O[C@@H](CS)[C@@H](O)CS [DTT]
sensitivity of 873-R compared with 873-S cells [6]: similarly sensitive

CC1(C)C(N(O)C(=O)Nc2ccc(Cl)cc2)N(c2ccc(Cl)cc2)C(=O)N1CC(=O)N/N=C/C=C/c1ccc([N+](=O)[O-])o1 (stereo not drawn) [EerI, Eeyarestatin I]
increase in UFD1/NPL4 binding to p97 relative to control ([7]; HCT116, 1 hour): up to 2.1 fold | sensitivity of 873-R compared with 873-S cells [6]: similarly sensitive

Cc1cc(OCc2nnc(SC3CCCC3)n2-c2cccnc2)ccc1-c1ccc(S(C)(=O)=O)cc1 [NMS-873]
increase in UFD1 and NPL4 bound to p97 [7, 10]: 12- to 15 fold | increase in p47 bound to p97 [7, 10]: 2.5 fold | t1/2 of decrease of NPL4 binding to p97 during recovery [7, 11]: 17 min | t1/2 of decrease of UFD1 binding to p97 during recovery [7, 11]: 13 min | increase in ubiquitin bound to p97 [8]: 15 fold | induction of CHOP, ATF4 and polyubiquitin in 873-R compared with 873-S cells ([9]; NMS-873 2 and 5 µM, CB-5083 0.3 and 2.5 µM): diminished responses | induction of CHOP, ATF4 and polyubiquitin in engineered A530T cells ([9]; HDR cells homozygous for A530T): diminished induction

CC(C)C[C@H](NC(=O)[C@H](Cc1ccccc1)NC(=O)c1cnccn1)B(O)O [bortezomib]
sensitivity of 873-R compared with 873-S cells [6]: similarly sensitive

C[C@H]1CCC/C=C/[C@@H]2C[C@H](O)C[C@H]2[C@H](O)/C=C/C(=O)O1 [brefeldin A]
sensitivity of 873-R compared with 873-S cells [6]: similarly sensitive

CC(C)C[C@H](NC(=O)[C@H](CCc1ccccc1)NC(=O)CN1CCOCC1)C(=O)N[C@@H](Cc1ccccc1)C(=O)N[C@@H](CC(C)C)C(=O)[C@@]1(C)CO1 [carfilzomib]
sensitivity of 873-R compared with 873-S cells [6]: similarly sensitive

NMS-859
increase in UFD1/NPL4 binding to p97 relative to control ([7]; HCT116, 1 hour): up to 2.1 fold | sensitivity of 873-R compared with 873-S cells [6]: similarly sensitive

tunicamycin
sensitivity of 873-R compared with 873-S cells [6]: similarly sensitive

B1: p47: recombinant p97 cofactor protein with N-terminal hexahistidine tag (protein)
chain: MAAERQEALREFVAVTGAEEDRARFFLESAGWDLQIALASFYEDGGDEDIVTISQATPSSVSRGTAPSDNRVTSFRDLIHDQDEDEEEEEGQRFYAGGSERSGQQIVGPPRKKSPNELVDDLFKGAKEHGAVAVERVTKSPGETSKPRPFAGGGYRLGAAPEEESAYVAGEKRQHSSQDVHVVLKLWKSGFSLDNGELRSYQDPSNAQFLESIRRGEVPAELRRLAHGGQVNLDMEDHRDEDFVKPKGAFKAFTGEGQKLGSTAPQVLSTSSPAQQAENEAKASSSILIDESEPTTNIQIRLADGGRLVQKFNHSHRISDIRLFIVDARPAMAATSFILMTTFPNKELADESQTLKEANLLNAVIVQRLT
modifications: left off: His6, N-terminal, state not stated
cofactor concentration of maximum inhibition of ATPase activity (p97 WT [1]; WT p97, biphasic response, recovery at 200 nM): 3.1 nM
